The experiment concerns the target full-length human HDAC11 (Homo sapiens (Human), UniProt Q96DB2). Briefly: Probe binding HDAC11 time resolved fluorescence (TRF) assay. The settings on record: Table 2, read-out: HDAC11 IC50 Range. The method, then:
The probe binding HDAC11 assay was performed using a time resolved fluorescence (TRF) assay format. Recombinant N-terminal GST tag full-length human HD AC 11 was expressed and purified from baculovirus in Sf9 insect cells (SignalChem, #H93-30G-1000). […] 4 μL of 2× probe and 2× anti-GST Terbium (Cisbio, #61GSTXLB) was added to assay plates followed by 4 μL of 2×HDAC11.
Data from HD AC 11 Assays were reported as percent inhibition (inh) compared with control wells based on the following equation: % inh=1−((FLU−AveLow)/(AveHigh−AveLow)) where FLU=measured time resolved fluorescence. AveLow=average time resolved fluorescence of no enzyme control (n=32). AveHigh=average time resolved fluorescence of DMSO control (n=32). IC50 values were determined by curve fitting of the standard 4 parameter logistic fitting algorithm included in the Activity Base software package: IDBS XE Designer Model205. Data is fitted using the Levenburg Marquardt algorithm.

pIC50: −log10 of the molar value. Counter-ions that a name gives are not always drawn.

38 compounds from patent publication US11535607B2, “Isoindolines as HDAC inhibitors” (Valo Health, Inc., priority 2018, dated 2022) can be followed below.

Sequence of full-length human HDAC11 (Q96DB2 whole entry): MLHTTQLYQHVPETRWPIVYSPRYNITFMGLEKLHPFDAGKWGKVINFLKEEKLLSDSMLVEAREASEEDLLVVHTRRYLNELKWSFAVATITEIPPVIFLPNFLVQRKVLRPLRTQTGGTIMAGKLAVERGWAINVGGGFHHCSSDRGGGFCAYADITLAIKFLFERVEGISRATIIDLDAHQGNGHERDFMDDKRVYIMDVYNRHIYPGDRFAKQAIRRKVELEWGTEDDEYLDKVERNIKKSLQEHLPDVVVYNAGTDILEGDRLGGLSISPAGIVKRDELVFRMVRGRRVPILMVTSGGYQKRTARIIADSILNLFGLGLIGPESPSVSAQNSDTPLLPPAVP

In the case of `CC1(C)c2cccc(C(=O)NO)c2CN1c1ccc(C(F)(F)F)c(C#N)n1` [Compound 27-1, 2-(6-cyano-5-(trifluoromethyl)pyridin-2-yl)-N-hydroxy-1,1-dimethylisoindoline-4-carboxamide], the pIC50 was over 6.30.

Consider `CC1(C)c2cccc(C(=O)NO)c2CN1c1nc2ccccc2o1` [Compound 25-1, 2-(benzo[d]oxazol-2-yl)-N-hydroxy-1,1-dimethylisoindoline-4-carboxamide], for which the pIC50 was over 6.30.

As for `O=C(NO)c1cccc2c1CN(c1nc3cnccc3o1)C2` [Compound 6-1, N-hydroxy-2-(oxazolo[4,5-c]pyridin-2-yl)isoindoline-4-carboxamide hydrochloride], the pIC50 was 6.00 to 6.30.

With `O=C(NO)c1cccc2cc(-c3ccc(C(F)(F)F)cc3)[nH]c12` [Compound 37-1, N-hydroxy-2-(4-(trifluoromethyl)phenyl)-1H-indole-7-carboxamide], the pIC50 was 6.00 to 6.30.

`CC1(C)c2cccc(C(=O)NO)c2N[C@@H]1c1ccc(C(F)(F)F)cn1` [Compound 40-2, (S)—N-hydroxy-3,3-dimethyl-2-(5-(trifluoromethyl)pyridin-2-yl)indoline-7-carboxamide]: the pIC50 was over 6.30.

For `CC1(C)c2cccc(C(=O)NO)c2CN1c1nc2cc(C(F)(F)F)ccc2s1` [Compound 20-2, N-hydroxy-1,1-dimethyl-2-(5-(trifluoromethyl)benzo[d]thiazol-2-yl)isoindoline-4-carboxamide], the pIC50 was over 6.30.

Turning to `O=C(NO)c1cccc2[nH]c(-c3cnc(C(F)(F)F)cn3)cc12` [Compound 37-4, N-hydroxy-2-(5-(trifluoromethyl)pyrazin-2-yl)-1H-indole-4-carboxamide], the pIC50 is over 6.30.

On to `CC(=O)N1CCc2nc(N3Cc4cccc(C(=O)NO)c4C3)[nH]c2C1` [Compound 14-1, 2-(5-acetyl-4,5,6,7-tetrahydro-3H-imidazo[4,5-c]pyridin-2-yl)-N-hydroxyisoindoline-4-carboxamide hydrochloride], for which the pIC50 is under 6.00.

For `O=C(NO)c1cccc2c1CN(c1nc3ncccc3o1)C2` [Compound 5-1, N-hydroxy-2-(oxazolo[4,5-b]pyridin-2-yl)isoindoline-4-carboxamide hydrochloride], the pIC50 was over 6.30.

For `CC1(C)c2cccc(C(=O)NO)c2CN1C(=O)c1ccc(C(F)(F)F)cc1` [Compound 28-1, N-hydroxy-1,1-dimethyl-2-(4-(trifluoromethyl)benzoyl)isoindoline-4-carboxamide], the pIC50 is under 6.00.

Regarding `O=C(NO)c1cccc2c1CN(c1nc3cccnc3[nH]1)C2` [Compound 4-1, N-hydroxy-2-(3H-imidazo[4,5-b]pyridin-2-yl)isoindoline-4-carboxamide], the pIC50 was under 6.00.

As to `CC1(C)c2cccc(C(=O)NO)c2CN1c1nc2ncccc2s1` [Compound 20-1, N-hydroxy-1,1-dimethyl-2-(thiazolo[4,5-b]pyridin-2-yl)isoindoline-4-carboxamide], the pIC50 is under 6.00.

With `CC1(C)c2cccc(C(=O)NO)c2CN1c1nc2ccc(C(F)(F)F)cc2o1` [Compound 18-3, N-hydroxy-1,1-dimethyl-2-(6-(trifluoromethyl)benzo[d]oxazol-2-yl)isoindoline-4-carboxamide], the pIC50 is over 6.30.

Turning to `CC1(C)c2cccc(C(=O)NO)c2CN1c1nc(C(F)(F)F)cs1` [Compound 22-9, N-hydroxy-1,1-dimethyl-2-(4-(trifluoromethyl)thiazol-2-yl)isoindoline-4-carboxamide], the pIC50 is under 6.00.

For `CC1(C)c2cccc(C(=O)NO)c2CN1C(=O)Nc1cc(C(F)(F)F)ccn1` [Compound 30-5, N4-hydroxy-1,1-dimethyl-N2-(4-(trifluoromethyl)pyridin-2-yl)isoindoline-2,4-dicarboxamide], the pIC50 was over 6.30.

For `O=C(NO)c1cccc2c1CN(c1nc3ccncc3o1)C2` [Compound 5-2, N-hydroxy-2-(oxazolo[5,4-c]pyridin-2-yl)isoindoline-4-carboxamide], the pIC50 is under 6.00.

Take `CC1(C)c2cccc(C(=O)NO)c2CN1c1ccc2nc(C(F)(F)F)ccc2n1` [Compound 24-1, N-hydroxy-1,1-dimethyl-2-(6-(trifluoromethyl)-1,5-naphthyridin-2-yl)isoindoline-4-carboxamide]: the pIC50 is over 6.30.

For `O=C(NO)c1cccc2c1CN(c1nc3cc(C(F)(F)F)c(-c4ccccc4)cc3[nH]1)C2` [Compound 34-1, N-hydroxy-2-(5-phenyl-6-(trifluoromethyl)-1H-benzo[d]imidazol-2-yl)isoindoline-4-carboxamide], the pIC50 was over 6.30.

For the compound `CC1(C)c2cccc(C(=O)NO)c2CN1c1nc2cnccc2o1` [Compound 21-1, N-hydroxy-1,1-dimethyl-2-(oxazolo[4,5-c]pyridin-2-yl)isoindoline-4-carboxamide], the pIC50 is over 6.30.

Regarding `CCC(C(=O)N1Cc2cccc(C(=O)NO)c2C1)c1ccc(OC)cc1` (centres unmarked) [Compound 28-3, N-hydroxy-2-(2-(4-methoxyphenyl)butanoyl)isoindoline-4-carboxamide], the pIC50 is under 6.00.

As to `O=C(NO)c1cccc2c1CN(c1nc3c(o1)CCC(C(F)(F)F)C3)C2` (centres unmarked) [Compound 16-1, N-hydroxy-2-(5-(trifluoromethyl)-4,5,6,7-tetrahydrobenzo[d]oxazol-2-yl)isoindoline-4-carboxamide], the pIC50 is over 6.30.

On to `O=C(NO)c1cccc2c1N[C@@H](c1ccc(C(F)(F)F)cc1)C2` [Compound 39-1, (R)—N-hydroxy-2-(4-(trifluoromethyl)phenyl)indoline-7-carboxamide], for which the pIC50 was over 6.30.

As to `COc1ccc(CN2Cc3c(C(=O)NO)cccc3C2(C)C)cc1` [Compound 32-1, N-hydroxy-2-(4-methoxybenzyl)-1,1-dimethylisoindoline-4-carboxamide hydrochloride], the pIC50 is under 6.00.

With `O=C(NO)c1cccc2c1CN(c1nc3cc(C(F)(F)F)cc(-c4ccccc4)c3[nH]1)C2` [Compound 35-1, N-hydroxy-2-(7-phenyl-5-(trifluoromethyl)-1H-benzo[d]imidazol-2-yl)isoindoline-4-carboxamide], the pIC50 is 6.00 to 6.30.

Regarding `CC1(C)c2cccc(C(=O)NO)c2CN1c1ccc2ccc(C(F)(F)F)cc2n1` [Compound 23-2, N-hydroxy-1,1-dimethyl-2-(7-(trifluoromethyl)quinolin-2-yl)isoindoline-4-carboxamide], the pIC50 is 6.00 to 6.30.

As to `O=C(NO)c1cccc2c1CN(c1nc3cc(C(F)(F)F)ccc3s1)C2` [Compound 11-1, N-hydroxy-2-(5-(trifluoromethyl)benzo[d]thiazol-2-yl)isoindoline-4-carboxamide], the pIC50 was over 6.30.

Consider `CC1(C)c2cccc(C(=O)NO)c2CN1C(=O)Nc1cncc(C(F)(F)F)c1` [Compound 30-4, N4-hydroxy-1,1-dimethyl-N2-(5-(trifluoromethyl)pyridin-3-yl)isoindoline-2,4-dicarboxamide], for which the pIC50 is under 6.00.

Take `O=C(NO)c1cccc2c1CN(c1nc3cc(C(F)(F)F)ccc3o1)C2=O` [Compound 36-2, N-hydroxy-1-oxo-2-(5-(trifluoromethyl)benzo[d]oxazol-2-yl)isoindoline-4-carboxamide]: the pIC50 was over 6.30.

For `O=C(NO)c1cccc2c1CN(c1ccc3c(c1)NCCO3)C2` [Compound 9-2, 2-(3,4-dihydro-2H-benzo[b][1,4]oxazin-6-yl)-N-hydroxyisoindoline-4-carboxamide], the pIC50 was under 6.00.

`O=C(NO)c1cccc2c1CN(c1nc3cccnc3o1)C2` [Compound 6-2, N-hydroxy-2-(oxazolo[5,4-b]pyridin-2-yl)isoindoline-4-carboxamide]: the pIC50 is under 6.00.

Regarding `CC1(C)CCc2nc(N3Cc4cccc(C(=O)NO)c4C3)[nH]c2C1` [Compound 1-5, 2-(5,5-dimethyl-4,5,6,7-tetrahydro-1H-benzo[d]imidazol-2-yl)-N-hydroxyisoindoline-4-carboxamide hydrochloride], the pIC50 is 6.00 to 6.30.

Consider `COCCn1c(N2Cc3cccc(C(=O)NO)c3C2)nc2ccccc21` [Compound 1-7, N-hydroxy-2-(1-(2-methoxyethyl)-1H-benzo[d]imidazol-2-yl)isoindoline-4-carboxamide], for which the pIC50 is under 6.00.

As to `CC1(C)c2cccc(C(=O)NO)c2CN1C(=O)Nc1nc2ccccc2o1` [Compound 30-7, N2-(benzo[d]oxazol-2-yl)-N4-hydroxy-1,1-dimethylisoindoline-2,4-dicarboxamide], the pIC50 was under 6.00.

Take `O=C(NO)c1cccc2c1CN(c1nc3c([nH]1)CC(C(F)(F)F)CC3)C2` (centres unmarked) [Compound 1-1, N-hydroxy-2-(5-(trifluoromethyl)-4,5,6,7-tetrahydro-1H-benzo[d]imidazol-2-yl)isoindoline-4-carboxamide]: the pIC50 is over 6.30.

As for `O=C(NO)c1cccc2c1CN(c1nc3c([nH]1)C[C@H](C(F)(F)F)CC3)C2` (single isomer, unassigned) [Compound 2-1, hydrochloride], the pIC50 is over 6.30.

For the compound `O=C(NO)c1cccc2c1CN(c1nc3c([nH]1)C[C@@H](C(F)(F)F)CC3)C2` (single isomer, unassigned) [Compound 2-2, hydrochloride], the pIC50 is over 6.30.

For `O=C(NO)c1cccc2c1CN(c1ccc3ncccc3n1)C2` [Compound 7-3, N-hydroxy-2-(1,5-naphthyridin-2-yl)isoindoline-4-carboxamide], the pIC50 is under 6.00.

In the case of `CC1(C)c2cccc(C(=O)NO)c2CN1c1ccc2ccccc2n1` [Compound 22-5, N-hydroxy-1,1-dimethyl-2-(quinolin-2-yl)isoindoline-4-carboxamide], the pIC50 is over 6.30.
